The values that follow come from US20240246942A1, “KINASE INHIBITORS FOR THE TREATMENT OF NEURODEGENERATIVE DISEASES” (priority 2020, published 2024).

What all share (assay): biochemical
For assay [1], the target named is T1, panel of 374 wild-type kinases (Homo sapiens, UniProt Q9Y4K4).
T1 construct: purchased Reaction Biology Corporation
Conditions: read-out: % Enzyme Activity (relative to DMSO controls), KHS/MAP4K5.

Assay [2] has as its target T2, panel of 374 wild-type kinases (Homo sapiens, UniProt P07948).
T2 construct: purchased Reaction Biology Corporation
The following applies: read-out: % Enzyme Activity (relative to DMSO controls), LYN.

In assay [3] the target is T3, panel of 374 wild-type kinases (Homo sapiens, UniProt Q8IWQ3).
T3 construct: purchased Reaction Biology Corporation
T3 sequence (Q8IWQ3 1-736): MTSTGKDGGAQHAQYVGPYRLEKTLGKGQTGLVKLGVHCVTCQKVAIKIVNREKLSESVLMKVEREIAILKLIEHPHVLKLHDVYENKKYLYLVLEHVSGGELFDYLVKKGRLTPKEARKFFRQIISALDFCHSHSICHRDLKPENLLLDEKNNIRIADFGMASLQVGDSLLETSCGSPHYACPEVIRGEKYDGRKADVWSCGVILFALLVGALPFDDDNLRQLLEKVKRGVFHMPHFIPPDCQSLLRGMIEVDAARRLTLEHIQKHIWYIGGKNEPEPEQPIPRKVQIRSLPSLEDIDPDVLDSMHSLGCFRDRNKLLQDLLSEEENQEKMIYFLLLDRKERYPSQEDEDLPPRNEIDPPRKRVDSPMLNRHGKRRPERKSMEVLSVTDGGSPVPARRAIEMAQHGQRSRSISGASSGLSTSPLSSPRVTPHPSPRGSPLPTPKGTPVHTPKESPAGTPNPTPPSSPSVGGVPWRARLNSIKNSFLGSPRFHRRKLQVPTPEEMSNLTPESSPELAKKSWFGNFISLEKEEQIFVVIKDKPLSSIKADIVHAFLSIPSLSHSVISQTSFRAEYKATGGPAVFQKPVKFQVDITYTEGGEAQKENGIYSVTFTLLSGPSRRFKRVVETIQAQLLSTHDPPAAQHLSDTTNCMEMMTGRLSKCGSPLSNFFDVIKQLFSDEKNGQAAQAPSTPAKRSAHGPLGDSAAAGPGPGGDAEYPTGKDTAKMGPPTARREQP
Conditions: read-out: % Enzyme Activity (relative to DMSO controls), BRSK2.

Assay [4] addresses T4, panel of 374 wild-type kinases (Homo sapiens, UniProt Q16620).
T4 construct: purchased Reaction Biology Corporation
Conditions: read-out: % Enzyme Activity (relative to DMSO controls), kinase TRKB.

The target in assay [5] is T5, panel of 374 wild-type kinases (Homo sapiens, UniProt P15056).
T5 construct: purchased Reaction Biology Corporation
T5 sequence (P15056 whole entry): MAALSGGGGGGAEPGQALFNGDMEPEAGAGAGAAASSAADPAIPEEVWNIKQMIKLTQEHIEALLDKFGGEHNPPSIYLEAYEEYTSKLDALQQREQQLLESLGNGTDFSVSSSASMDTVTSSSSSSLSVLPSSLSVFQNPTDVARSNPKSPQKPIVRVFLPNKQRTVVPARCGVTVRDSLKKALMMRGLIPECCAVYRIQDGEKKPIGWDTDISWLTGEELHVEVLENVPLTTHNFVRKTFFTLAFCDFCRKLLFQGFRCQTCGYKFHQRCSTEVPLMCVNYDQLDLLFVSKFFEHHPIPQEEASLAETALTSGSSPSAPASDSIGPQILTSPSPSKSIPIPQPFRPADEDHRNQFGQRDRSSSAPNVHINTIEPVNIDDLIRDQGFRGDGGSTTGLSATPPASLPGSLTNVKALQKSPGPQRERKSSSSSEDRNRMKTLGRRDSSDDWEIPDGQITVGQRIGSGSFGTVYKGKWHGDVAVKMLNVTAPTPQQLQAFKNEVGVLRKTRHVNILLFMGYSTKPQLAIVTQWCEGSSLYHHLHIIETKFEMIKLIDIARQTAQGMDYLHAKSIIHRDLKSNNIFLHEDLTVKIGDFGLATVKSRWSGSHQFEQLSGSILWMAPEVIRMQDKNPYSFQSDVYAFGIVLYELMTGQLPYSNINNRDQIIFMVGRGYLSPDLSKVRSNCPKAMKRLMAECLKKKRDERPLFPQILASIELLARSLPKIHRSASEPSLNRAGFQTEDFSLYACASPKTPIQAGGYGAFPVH
Conditions: read-out: % Enzyme Activity (relative to DMSO controls), BRAF.

Assay [6] addresses T6, panel of 374 wild-type kinases (Homo sapiens, UniProt Q9Y2U5).
T6 construct: purchased Reaction Biology Corporation
T6 sequence (Q9Y2U5 1-619): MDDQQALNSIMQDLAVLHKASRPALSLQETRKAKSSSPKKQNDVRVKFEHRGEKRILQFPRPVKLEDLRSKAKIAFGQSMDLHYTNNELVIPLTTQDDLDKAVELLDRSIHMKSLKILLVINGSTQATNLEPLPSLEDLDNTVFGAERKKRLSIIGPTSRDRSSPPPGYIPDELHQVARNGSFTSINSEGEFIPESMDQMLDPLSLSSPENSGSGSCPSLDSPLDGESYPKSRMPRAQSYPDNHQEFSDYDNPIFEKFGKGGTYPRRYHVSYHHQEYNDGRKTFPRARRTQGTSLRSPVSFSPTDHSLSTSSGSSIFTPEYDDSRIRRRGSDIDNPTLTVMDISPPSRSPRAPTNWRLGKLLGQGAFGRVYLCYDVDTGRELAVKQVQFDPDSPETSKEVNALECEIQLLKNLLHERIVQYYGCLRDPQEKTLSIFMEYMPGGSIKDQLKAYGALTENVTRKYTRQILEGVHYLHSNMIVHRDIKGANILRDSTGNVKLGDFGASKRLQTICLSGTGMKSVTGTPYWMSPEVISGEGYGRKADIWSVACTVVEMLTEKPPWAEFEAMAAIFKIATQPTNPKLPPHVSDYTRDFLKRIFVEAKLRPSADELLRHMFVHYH
The following applies: read-out: % Enzyme Activity (relative to DMSO controls), MEKK2.

For assay [7], the target named is T7, panel of 374 wild-type kinases (Homo sapiens, UniProt Q8N5S9).
T7 construct: purchased Reaction Biology Corporation
T7 sequence (Q8N5S9 whole entry): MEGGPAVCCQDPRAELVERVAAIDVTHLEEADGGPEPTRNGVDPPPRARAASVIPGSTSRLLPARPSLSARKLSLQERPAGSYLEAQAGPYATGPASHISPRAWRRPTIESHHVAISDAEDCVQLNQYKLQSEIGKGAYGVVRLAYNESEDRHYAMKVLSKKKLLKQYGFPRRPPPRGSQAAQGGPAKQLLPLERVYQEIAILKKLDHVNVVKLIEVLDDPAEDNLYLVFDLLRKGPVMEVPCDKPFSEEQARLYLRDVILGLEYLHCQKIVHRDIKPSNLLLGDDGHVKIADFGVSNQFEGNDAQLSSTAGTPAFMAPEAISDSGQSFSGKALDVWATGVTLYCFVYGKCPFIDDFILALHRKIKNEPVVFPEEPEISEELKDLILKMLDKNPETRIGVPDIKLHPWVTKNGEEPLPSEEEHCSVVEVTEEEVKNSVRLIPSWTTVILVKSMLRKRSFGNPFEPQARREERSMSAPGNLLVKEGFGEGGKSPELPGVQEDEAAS
Conditions: read-out: % Enzyme Activity (relative to DMSO controls), CAMKK1.

Assay [8] has as its target T8, panel of 374 wild-type kinases (Homo sapiens, UniProt Q9UPE1).
T8 construct: purchased Reaction Biology Corporation
The following applies: read-out: % Enzyme Activity (relative to DMSO controls), MSSK1/STK23.

The target in assay [9] is T9, panel of 374 wild-type kinases (Homo sapiens, UniProt Q9UHD2).
T9 construct: purchased Reaction Biology Corporation
T9 sequence (Q9UHD2 1-729): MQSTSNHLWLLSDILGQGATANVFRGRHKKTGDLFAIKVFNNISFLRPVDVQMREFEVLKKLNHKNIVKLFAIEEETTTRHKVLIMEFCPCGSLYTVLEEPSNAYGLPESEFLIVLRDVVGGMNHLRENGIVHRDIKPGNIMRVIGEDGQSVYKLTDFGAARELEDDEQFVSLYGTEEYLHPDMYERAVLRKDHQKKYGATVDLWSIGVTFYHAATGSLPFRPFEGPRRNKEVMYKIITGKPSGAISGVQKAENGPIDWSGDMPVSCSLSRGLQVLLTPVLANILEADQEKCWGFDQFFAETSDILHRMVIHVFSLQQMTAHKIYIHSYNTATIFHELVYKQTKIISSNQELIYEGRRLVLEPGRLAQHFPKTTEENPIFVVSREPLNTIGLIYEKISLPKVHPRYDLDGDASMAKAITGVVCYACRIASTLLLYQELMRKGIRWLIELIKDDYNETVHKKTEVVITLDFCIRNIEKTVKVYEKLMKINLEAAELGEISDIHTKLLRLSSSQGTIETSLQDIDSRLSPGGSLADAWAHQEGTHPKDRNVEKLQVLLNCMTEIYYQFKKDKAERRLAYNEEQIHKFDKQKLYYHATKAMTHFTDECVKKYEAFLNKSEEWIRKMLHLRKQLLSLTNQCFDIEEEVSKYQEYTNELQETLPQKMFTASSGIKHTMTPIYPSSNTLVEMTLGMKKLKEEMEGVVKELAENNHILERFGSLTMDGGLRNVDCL
The following applies: read-out: % Enzyme Activity (relative to DMSO controls), kinase TBK1.

T2 sequence (P07948 whole entry): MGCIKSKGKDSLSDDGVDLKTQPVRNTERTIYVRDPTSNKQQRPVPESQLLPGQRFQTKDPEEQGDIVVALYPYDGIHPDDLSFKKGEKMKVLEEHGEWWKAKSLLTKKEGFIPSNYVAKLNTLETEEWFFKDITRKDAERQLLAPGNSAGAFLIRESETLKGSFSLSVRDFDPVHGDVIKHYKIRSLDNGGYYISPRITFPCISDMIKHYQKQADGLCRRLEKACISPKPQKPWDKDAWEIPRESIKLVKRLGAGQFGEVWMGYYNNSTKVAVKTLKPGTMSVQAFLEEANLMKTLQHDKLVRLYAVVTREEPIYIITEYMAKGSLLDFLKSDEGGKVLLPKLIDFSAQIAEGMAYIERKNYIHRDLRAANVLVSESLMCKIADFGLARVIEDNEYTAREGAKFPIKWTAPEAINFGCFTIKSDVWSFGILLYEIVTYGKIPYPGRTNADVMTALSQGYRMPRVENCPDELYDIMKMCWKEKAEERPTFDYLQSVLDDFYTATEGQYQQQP
T1 sequence (Q9Y4K4 whole entry): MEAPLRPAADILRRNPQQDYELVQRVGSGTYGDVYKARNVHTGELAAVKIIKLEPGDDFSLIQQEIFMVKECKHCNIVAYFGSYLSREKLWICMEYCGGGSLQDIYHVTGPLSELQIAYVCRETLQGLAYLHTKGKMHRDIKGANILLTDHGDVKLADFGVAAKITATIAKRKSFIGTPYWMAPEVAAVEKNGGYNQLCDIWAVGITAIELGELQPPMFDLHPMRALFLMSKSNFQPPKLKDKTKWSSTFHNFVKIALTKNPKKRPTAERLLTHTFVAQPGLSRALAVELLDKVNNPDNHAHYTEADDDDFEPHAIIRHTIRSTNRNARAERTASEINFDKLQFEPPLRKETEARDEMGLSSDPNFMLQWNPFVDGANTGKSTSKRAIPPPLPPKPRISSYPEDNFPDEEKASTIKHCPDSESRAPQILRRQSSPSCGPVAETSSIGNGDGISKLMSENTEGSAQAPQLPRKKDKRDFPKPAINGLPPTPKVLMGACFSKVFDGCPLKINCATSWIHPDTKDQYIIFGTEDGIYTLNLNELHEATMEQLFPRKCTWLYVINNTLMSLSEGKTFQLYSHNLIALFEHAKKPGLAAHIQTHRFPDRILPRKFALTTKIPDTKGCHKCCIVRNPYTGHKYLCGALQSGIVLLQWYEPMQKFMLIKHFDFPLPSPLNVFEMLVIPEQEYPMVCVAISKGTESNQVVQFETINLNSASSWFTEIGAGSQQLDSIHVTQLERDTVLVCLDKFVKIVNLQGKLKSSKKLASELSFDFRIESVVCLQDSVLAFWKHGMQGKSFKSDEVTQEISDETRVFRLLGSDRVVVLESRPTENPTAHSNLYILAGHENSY
T4 sequence (Q16620 32-822): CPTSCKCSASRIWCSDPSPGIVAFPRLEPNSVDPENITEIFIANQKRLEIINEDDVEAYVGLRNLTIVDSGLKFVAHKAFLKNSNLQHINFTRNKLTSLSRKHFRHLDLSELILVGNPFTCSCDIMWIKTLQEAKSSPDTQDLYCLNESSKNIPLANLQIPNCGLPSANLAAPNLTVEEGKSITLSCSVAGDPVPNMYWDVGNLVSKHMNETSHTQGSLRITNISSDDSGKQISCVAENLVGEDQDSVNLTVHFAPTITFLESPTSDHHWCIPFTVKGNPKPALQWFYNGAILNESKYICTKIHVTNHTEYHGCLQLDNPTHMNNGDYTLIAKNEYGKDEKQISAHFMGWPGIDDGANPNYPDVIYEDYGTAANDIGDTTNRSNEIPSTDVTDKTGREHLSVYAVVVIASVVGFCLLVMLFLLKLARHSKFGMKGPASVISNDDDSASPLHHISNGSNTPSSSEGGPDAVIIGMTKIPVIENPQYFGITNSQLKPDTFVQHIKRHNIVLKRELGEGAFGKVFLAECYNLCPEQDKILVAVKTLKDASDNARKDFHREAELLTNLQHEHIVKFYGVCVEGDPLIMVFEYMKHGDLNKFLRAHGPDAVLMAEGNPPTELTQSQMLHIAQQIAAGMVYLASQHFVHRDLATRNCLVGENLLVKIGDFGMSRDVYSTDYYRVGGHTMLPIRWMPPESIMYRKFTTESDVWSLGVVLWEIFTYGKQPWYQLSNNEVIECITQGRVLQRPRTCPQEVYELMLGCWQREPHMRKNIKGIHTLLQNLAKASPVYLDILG
T8 sequence (Q9UPE1 whole entry): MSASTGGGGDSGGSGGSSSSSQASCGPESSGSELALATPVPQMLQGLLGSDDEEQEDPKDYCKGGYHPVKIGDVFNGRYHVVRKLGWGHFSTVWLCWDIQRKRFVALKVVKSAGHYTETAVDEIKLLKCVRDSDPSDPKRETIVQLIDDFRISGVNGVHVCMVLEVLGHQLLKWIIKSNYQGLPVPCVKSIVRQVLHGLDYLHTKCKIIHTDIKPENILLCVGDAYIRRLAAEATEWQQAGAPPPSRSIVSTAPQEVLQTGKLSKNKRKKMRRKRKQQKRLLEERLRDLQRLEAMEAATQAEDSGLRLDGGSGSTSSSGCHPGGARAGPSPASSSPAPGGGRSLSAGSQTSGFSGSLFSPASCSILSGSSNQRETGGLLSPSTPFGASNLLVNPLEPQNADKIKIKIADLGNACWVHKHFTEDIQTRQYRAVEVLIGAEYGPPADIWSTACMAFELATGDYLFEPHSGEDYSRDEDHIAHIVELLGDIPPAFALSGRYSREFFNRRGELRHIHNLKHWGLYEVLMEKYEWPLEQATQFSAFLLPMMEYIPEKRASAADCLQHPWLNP

For the compound `Cc1sc(C(=O)NC2COC2)cc1-n1cc(NC(=O)Nc2c(F)cccc2Cl)cn1` [Compound 27, 4-(4-(3-(2-chloro-6-fluorophenyl)ureido)-1H-pyrazol-1-yl)-5-methyl-N-(oxetan-3-yl)thiophene-2-carboxamide], the remaining activity at 10 µM in [1] (10 uM) was determined as 98.4%; in assay [2] (10 uM), 106%; in [3] (10 uM), 102%; in assay [4] (10 uM), 92.4%; in [5] (10 uM), 105%; in assay [6] (10 uM) it was 88.1%. Besides, the figures for the remaining activity at 10 µM in assay [7] (10 uM), in [8] (10 uM) and in [9] (10 uM) were 121%, 98.9% and 97.8%, respectively.

`O=C(Nc1cnn(-c2csc(C(=O)NC3COC3)c2)c1)Nc1c(F)cccc1Cl` [Compound 25, 4-(4-(3-(2-chloro-6-fluorophenyl)ureido)-1H-pyrazol-1-yl)-N-(oxetan-3-yl)thiophene-2-carboxamide]: the remaining activity at 5 µM worked out at 103% in [1]; 95.3% in assay [2]; 100% in assay [3]; 91.5% in assay [4]; 99.9% in [5]; 80.1% in assay [6]. Besides, the values for the remaining activity at 5 µM in [7], in assay [8] and in assay [9] were 93.7%, 89.8% and 98.8%, respectively.

Regarding `O=C(Nc1cnn(-c2csc(C(=O)NC3COC3)c2)c1)Nc1ccccc1Cl` [Compound 17, 4-(4-(3-(2-chlorophenyl)ureido)-1H-pyrazol-1-yl)-N-(oxetan-3-yl)thiophene-2-carboxamide], the remaining activity at 5 µM in assay [1] amounted to 99.1%; in [2], 96.8%; in assay [3] it was 102%; in assay [4], 84.2%; in assay [5], 93.3%; in assay [6], 110%. In addition, the results for the remaining activity at 5 µM in assay [7], in assay [8] and in assay [9] were 130%, 91.9% and 102%, respectively.
